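Five concentrations, 48 hours, 96-well plates. GI50 marks 50% less growth.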 Activity calls are given as the source filed them. Cut-off read from the data, not from the text of the source: active = GI50 up to about 1.1 µM and inactive = higher.
Columns and labels:
Test in all cases: NCI tumour cell line growth inhibition, 48 h
[1] = tested on: ACHN
[2] = tested on: BT-549
[3] = tested on: HCT-116
[4] = tested on: HCT-15
[5] = tested on: HOP-92
[6] = tested on: HT-29
[7] = tested on: K562
[8] = tested on: KM12
[9] = tested on: NCI-H226
[10] = tested on: OVCAR-5
[11] = tested on: PC-3
[12] = tested on: SF-539
[13] = tested on: SK-MEL-5
[14] = tested on: SN12C
[15] = tested on: SNB-19
[16] = tested on: SNB-75
[17] = tested on: EKVX
[18] = tested on: RPMI-8226
[19] = tested on: A498

| SMILES | GI50 [1] | GI50 [2] | GI50 [3] | GI50 [4] | GI50 [5] | GI50 [6] | GI50 [7] | GI50 [8] | GI50 [9] | GI50 [10] | GI50 [11] | GI50 [12] | GI50 [13] | GI50 [14] | GI50 [15] | GI50 [16] | GI50 [17] | GI50 [18] | GI50 [19] |
| --- | --- | --- | --- | --- | --- | --- | --- | --- | --- | --- | --- | --- | --- | --- | --- | --- | --- | --- | --- |
| CCn1c(=O)c2c3ccc(OC(C)=O)cc3[nH]c2c2ccc(OC(C)=O)cc21 | 31.9 µM (inactive) | 72.3 µM (inactive) | 15.5 µM (inactive) | 62.2 µM | 43.5 µM (inactive) | 43.3 µM (inactive) | 24 µM (inactive) | 34.7 µM (inactive) | 24.8 µM (inactive) | > 100 µM (inactive) | 26.9 µM (inactive) | 39 µM (inactive) | 30.8 µM (inactive) | 32.7 µM (inactive) | 50.5 µM (inactive) | 10.1 µM (inactive) |  |  |  |
| Cc1cccc2c1Oc1ncccc1C2NC(=O)CN(C)C (configuration not stated) | > 10 µM (inactive) | > 10 µM (inactive) |  | > 10 µM | 3.77 µM (inactive) | > 10 µM (inactive) | > 10 µM (inactive) | > 10 µM (inactive) | > 10 µM (inactive) | > 10 µM (inactive) | > 10 µM (inactive) | > 10 µM (inactive) |  | > 10 µM (inactive) | > 10 µM (inactive) | 7.78 µM (inactive) | > 10 µM (inactive) |  |  |
| S=C1/C(=N/c2ccccc2)N(c2ccccc2)/C(=N\c2cccc[n+]2Cc2ccccc2)N1c1ccccc1 | 17 µM (inactive) | 14.3 µM (inactive) | 11.1 µM (inactive) | 21.4 µM | 16.6 µM (inactive) | 16.4 µM (inactive) | 4.25 µM (inactive) | 16.6 µM (inactive) | 19.3 µM (inactive) | 15.9 µM (inactive) | 12.1 µM (inactive) | 16.3 µM (inactive) | 12.8 µM (inactive) | 21 µM (inactive) | 15.4 µM (inactive) | < 0.01 µM (active) | 19.7 µM (inactive) | 17.4 µM (inactive) |  |
| COc1ccc(-c2nc3cc(F)ccc3s2)cc1O | 28.7 µM (inactive) | 17.2 µM (inactive) | 27.4 µM (inactive) | 3.05 µM |  | 26.4 µM (inactive) | 73.1 µM (inactive) | 12.2 µM (inactive) | 23.8 µM (inactive) | 48.6 µM (inactive) | 34.7 µM (inactive) | 38.5 µM (inactive) | 22.5 µM (inactive) | 84.3 µM (inactive) | 61.7 µM (inactive) |  | 6.59 µM (inactive) | 17.6 µM (inactive) | 29.7 µM (inactive) |
| C[C@H]1CC[C@@]2(OC1)O[C@H]1C[C@H]3[C@@H]4CC[C@@H]5C[C@@H](OC6OC(CO)C(O)C(O)C6OC6OC(CO)C(O)C(O)C6O)CC[C@]5(C)[C@H]4CC[C@]3(C)[C@H]1[C@@H]2C (some centres not stated) | 2.11 µM (inactive) | 2.35 µM (inactive) | 2.01 µM (inactive) | 1.99 µM | 2.37 µM (inactive) | 2 µM (inactive) | 2.07 µM (inactive) | 2.6 µM (inactive) | 2.34 µM (inactive) | 1.81 µM (inactive) | 2.13 µM (inactive) | 2.03 µM (inactive) | 2.18 µM (inactive) | 2.07 µM (inactive) | 2.18 µM (inactive) | 2.24 µM (inactive) | 2.08 µM (inactive) | 1.9 µM (inactive) |  |
| NS(=O)(=O)c1nnc(NC(=O)CCC(=O)O)s1 | > 100 µM (inactive) | > 100 µM (inactive) | > 100 µM (inactive) | > 100 µM | > 100 µM (inactive) | > 100 µM (inactive) | > 100 µM (inactive) | > 100 µM (inactive) | > 100 µM (inactive) | > 100 µM (inactive) |  | > 100 µM (inactive) | > 100 µM (inactive) | > 100 µM (inactive) | > 100 µM (inactive) |  | > 100 µM (inactive) | > 100 µM (inactive) | > 100 µM (inactive) |
| COCC(=O)CP(=O)(OC)OC | > 100 µM (inactive) |  | > 100 µM (inactive) | > 100 µM | > 100 µM (inactive) | > 100 µM (inactive) | > 100 µM (inactive) | > 100 µM (inactive) |  | > 100 µM (inactive) |  | > 100 µM (inactive) | > 100 µM (inactive) | > 100 µM (inactive) | > 100 µM (inactive) | > 100 µM (inactive) | > 100 µM (inactive) | > 100 µM (inactive) | > 100 µM (inactive) |
| CC1=C(/C(C)=N/NS(=O)(=O)c2ccc(C)cc2)Sc2ccccc2N1 | > 100 µM (inactive) |  | > 100 µM (inactive) | > 100 µM | 81.8 µM (inactive) | 98.6 µM (inactive) | 37.7 µM (inactive) | > 100 µM (inactive) | > 100 µM (inactive) | > 100 µM (inactive) |  | > 100 µM (inactive) | 47.5 µM (inactive) | > 100 µM (inactive) | > 100 µM (inactive) | 75.7 µM (inactive) | 68.7 µM (inactive) | 56.8 µM (inactive) | > 100 µM (inactive) |
| COc1cc2c(cc1OC)C1=Cc3ccc(OC)c(OC)c3C(C#N)N1CC2 (configuration not stated) | > 100 µM (inactive) | 14.6 µM (inactive) | 36.1 µM (inactive) | > 100 µM |  | 33.7 µM (inactive) |  | 21.1 µM (inactive) | > 100 µM (inactive) | > 100 µM (inactive) | 32.4 µM (inactive) | 13.8 µM (inactive) | 17.2 µM (inactive) | 35.2 µM (inactive) | 41.3 µM (inactive) | 5.22 µM (inactive) | 96.8 µM (inactive) | 20.7 µM (inactive) | > 100 µM (inactive) |
| CC1=NN(c2cccc(Cl)c2)C2(C1=Cc1ccc(N(C)C)cc1)C(Cl)C(=O)N2c1nc2ccccc2s1 (configuration not stated) | 53.2 µM (inactive) |  | 60 µM (inactive) | 77.4 µM | 18.6 µM (inactive) | 25.5 µM (inactive) | 56.9 µM (inactive) | 3.95 µM (inactive) | > 100 µM (inactive) | > 100 µM (inactive) | > 100 µM (inactive) | 49.1 µM (inactive) | 49.1 µM (inactive) |  |  |  | > 100 µM (inactive) | 41 µM (inactive) | 36.3 µM (inactive) |
| Fc1cc(-c2ncc(Cl)cc2Cl)c2cccccc1-2 | > 100 µM (inactive) | > 100 µM (inactive) | > 100 µM (inactive) | > 100 µM |  | 76.2 µM (inactive) |  | > 100 µM (inactive) | > 100 µM (inactive) | > 100 µM (inactive) | > 100 µM (inactive) | > 100 µM (inactive) | > 100 µM (inactive) |  | > 100 µM (inactive) | > 100 µM (inactive) | > 100 µM (inactive) |  |  |
| CSc1cc(Cl)c(C)cc1S(=O)(=O)NC(=O)NNc1ccc(Cl)cc1 | 47.3 µM (inactive) |  | > 100 µM (inactive) | > 100 µM |  | > 100 µM (inactive) | > 100 µM (inactive) | > 100 µM (inactive) | 56 µM (inactive) | > 100 µM (inactive) | 80.5 µM (inactive) | 40.1 µM (inactive) | 69.5 µM (inactive) | > 100 µM (inactive) | > 100 µM (inactive) | > 100 µM (inactive) | > 100 µM (inactive) |  | > 100 µM (inactive) |
| CC1C(c2ccc(F)cc2)c2cc3c(cc2OC1N1CCCC1)OCO3 (configuration not stated) | 27.7 µM (inactive) |  | 30.6 µM (inactive) | 34.4 µM | 15.5 µM (inactive) | 47.8 µM (inactive) | 42 µM (inactive) | 42.5 µM (inactive) |  | 47.5 µM (inactive) | 44.2 µM (inactive) | 30.4 µM (inactive) | 37.7 µM (inactive) | 80.4 µM (inactive) | 29.1 µM (inactive) | 22.3 µM (inactive) | 34.1 µM (inactive) | > 10 µM (inactive) |  |
| CCCCCCCCCCCC(=O)OCC1OC(n2cc(F)c(=O)[nH]c2=O)C(NC(=O)OCc2ccccc2)C(O)C1O (configuration not stated) | 57.4 µM (inactive) |  | 16.7 µM (inactive) | 19.7 µM | 22.4 µM (inactive) | 16.1 µM (inactive) | 21.7 µM (inactive) | 21.3 µM (inactive) |  |  |  | 22 µM (inactive) | 20.3 µM (inactive) | 18.5 µM (inactive) | 28.5 µM (inactive) | 11.1 µM (inactive) | 30.5 µM (inactive) | 19.4 µM (inactive) | 20.1 µM (inactive) |
| CC1CN=C(N(C(=O)Nc2ccc(Cl)cc2)c2cccc(Cl)c2)S1 (configuration not stated) | 10.8 µM (inactive) |  | 20.4 µM (inactive) | 11.3 µM | 26.3 µM (inactive) | 23 µM (inactive) | 7.06 µM (inactive) | 24.9 µM (inactive) |  | > 100 µM (inactive) | 25.2 µM (inactive) | 33.7 µM (inactive) | 17.5 µM (inactive) | 15.7 µM (inactive) | > 100 µM (inactive) | 65 µM (inactive) | 31.2 µM (inactive) | > 10 µM (inactive) | 16.9 µM (inactive) |
| Cc1cc(N(CCC#N)CCC#N)ccc1C(/N=N\c1ccc(C(=O)O)cc1)=N\NC(=O)c1cc(Cl)ccc1O | 31.7 µM (inactive) | 45.9 µM (inactive) | 36.1 µM (inactive) | > 100 µM |  | > 100 µM (inactive) | > 100 µM (inactive) | 28.8 µM (inactive) | 18.7 µM (inactive) | > 100 µM (inactive) | 61 µM (inactive) | > 10 µM (inactive) | 78.7 µM (inactive) | > 100 µM (inactive) | 23.6 µM (inactive) | 22.6 µM (inactive) | 33 µM (inactive) | > 100 µM (inactive) | 28.6 µM (inactive) |
| O=C(Nc1ccccc1F)c1cc2ccc(O)cc2o/c1=N\c1cccc(C(F)(F)F)c1 | 3.57 µM (inactive) | 2.67 µM (inactive) | 2.85 µM (inactive) | 3.59 µM |  | 32.1 µM (inactive) | 2.85 µM (inactive) | 3.71 µM (inactive) |  | 26.5 µM (inactive) | 3.76 µM (inactive) | 3.9 µM (inactive) | 1.94 µM (inactive) |  | 5.87 µM (inactive) |  | 3.76 µM (inactive) | 2.05 µM (inactive) | 7.4 µM (inactive) |
